This is an account of results in article PMC11541501, “Development of a Candidate ^11C‑Labeled Selective Phosphodiesterase 1 Radioligand for Positron Emission Tomography” (ACS Omega, 2024).

pIC50, pKi: −log10 of the molar value. Like-named read-outs stand apart in the source and are kept apart here. Where only a bound is given, the exact number is not on record here.

Data set [1] in a line: Whole-body biodistribution study in mice. It is filed as in vivo, ddY mice. How it is done: To investigate the distribution of [^11C]-PF-04822163 in the whole body, we conducted a biodistribution study in ddY mice (Figure ). The radioactivity levels in major organs were assessed at 1, 5, 15, 30, and 60 min after the administration of [^11C]-PF-04822163. […] After the initial uptake, radioactivity accumulations decreased in almost all organs, while the uptake in the small intestine increased, and liver uptake remained at a high level (5% ID/g at 60 min), indicating a hepatobiliary elimination route.
The biodistribution experiment was performed according to previous reports. , In brief, [^11C]-PF-04822163 (4.44 MBq/0.1 mL) was injected (i.v.) into ddY mice via the tail vein. After the administration of [^11C]-PF-04822163, the mice were sacrificed at different time points (1, 5, 15, 30, and 60 min), and tissues of interest were collected. The tissues were weighted and measured by a gamma counter.

Data set [2] has as its system PDE1. Kind of data set: Dynamic PET imaging in rat brains. It is filed as in vivo, SD rats. How it is done:
Encouraged by the results of in vitro evaluation by autoradiography studies with the ligand [^11C]-PF-04822163, dynamic PET imaging studies were conducted with [^11C]-PF-04822163 on SD rats. […] Additionally, an evident washout was observed after initial high uptakes in all brain regions. To assess the in vivo binding specificity of [^11C]-PF-04822163 to PDE1, we carried out blocking studies with the pretreatment of unlabeled PF-04822163 (1 mg/kg, 10 min before the administration of [^11C]-PF-04822163). […] These findings indicate that further optimization of the pharmacological and ADME properties is warranted to obtain a suitable probe for in vivo imaging of PDE1.
4 PET studies of [^11C]-PF-04822163 in rat brains. […]
PET imaging was conducted as previously reported. , An Inveon PET scanner (Siemens) was used for dynamic PET imaging studies, [^11C]-PF-04822163 (ca. 17.5 MBq/1.5 mL) was intravenously injected via the tail vein via a preinstalled catheter, and dynamic PET images were acquired in a 3D mode for a period of 60 min. […] The dynamic PET images were reconstructed using ASIPro VW software, and volumes of interest were calculated.

The nature of data set [3]: Radiometabolic analysis in rat brain and plasma. It is filed as in vivo, SD rats. The note with it: 15 min postadministration. How it is done: To gain insight into the in vivo stability of [^11C]-PF-04822163, we performed radiometabolic analysis in the brain and plasma of SD rats (Figure ). At 15 min postadministration of [^11C]-PF-04822163, 95% of [^11C]-PF-04822163 remained unchanged in the brain, while in plasma, 26% remained unchanged.
The radiometabolic analysis was performed following a previous report. After the intravenous injection of [^11C]-PF-04822163, SD rats were sacrificed at 15 min postinjection. Plasma samples were quenched with acetonitrile and centrifuged, and the supernatant was assessed by radio-HPLC. The brain was collected and homogenized and quenched with acetonitrile, and the resulting homogenate was centrifuged. The supernatant was analyzed by radio-HPLC.

Data set [4] has as its system PDE1. The note with it: cited from earlier work; for pIC50: introduction, literature value.
The subject of data set [5] is 65 major CNS targets, including ion channels, transporters, and GPCR enzymes. Briefly: Off-target binding screen against 65 major CNS targets (NIMH PDSP). The note with it: 10 μM testing concentration; except 5-HT2B and 5-HT6. The source says:
(§1) Furthermore, we investigated the off-target binding of PF-04822163 in vitro against 65 major CNS targets, including ion channels, transporters, and GPCR enzymes (Figure S2 in the Supporting Information, supported by the NIMH Psychoactive Drug Screening Program (PDSP)).
(§2) % Inhibition of Target Activity
(§3) Figure S2. Off-target pharmacological evaluation of compound PF-04822163 against major CNS targets, including common GPCRs, enzymes, ion channels, and transporters: initial screening at a concentration of 10 μM (supported by the NIMH PDSP). All data are […]
(§4) Figure S3. The time-activity-curves (0-60 min) of PET studies with [11C]PF-04822163 in rat brains under baseline and blocking conditions. All data were referred to as mean ± SEM,

Data set [6] addresses PDE10A (Homo sapiens, UniProt Q9Y233). Briefly: Potency toward other PDEs (PDE10A). It is filed as biochemical.
The target of data set [7] is T1, 5-HT6 (Homo sapiens, UniProt P50406).
T1 construct: NIMH Psychoactive Drug Screening Program (PDSP)
Kind of data set: Off-target binding, 5-HT6 (NIMH PDSP).
From the text: as §1, §2, §3, §4

For data set [8], the target named is T2, 5-HT2B (Homo sapiens, UniProt P41595).
T2 construct: NIMH Psychoactive Drug Screening Program (PDSP)
Kind of data set: Off-target binding, 5-HT2B (NIMH PDSP).
From the text: as §1, §2, §3, §4

Data set [9] deals with PDE1C (Homo sapiens, UniProt Q14123). Briefly: PDE1C inhibition. It is filed as biochemical.
For data set [10], the target named is T3, PDE1B (Homo sapiens, UniProt Q01064). The note with it: introduction, literature value; ref Humphrey et al., 2014; cited from earlier work.
Data set [11] has as its system PDE1B. Kind of data set: In vitro autoradiography with [11C]PF-04822163 on rat brain sections, blocking. It is filed as binding, Sprague–Dawley (SD) rat. The note with it: blocker 10 μM, [11C]PF-04822163 autoradiography. How it is done:
With the ligand [^11C]-PF-04822163 in hand, in vitro autoradiography studies were conducted on Sprague–Dawley (SD) rat brain sections to validate its binding specificity toward PDE1. […] In the autoradiography studies on the coronal brain sections, high radioactivity levels were found in the caudate putamen, nucleus accumbens, and olfactory tubercle (Figure a,c).
3 In vitro autoradiography studies of [^11C]-PF-04822163 on rat brain sections. (a) Representative images of autoradiography studies with [^11C]-PF-04822163 under baseline and blocking conditions (PF-04822163 or PF-04827736, 10 μM), (b) quantification of autoradiography studies of [^11C]-PF-04822163 on sagittal rat brain sections, and (c) quantification of autoradiography studies of [^11C]-PF-04822163 on coronal rat brain sections. All data are means ± SD, n ≥ 8. Statistical analysis was conducted with Student’s two-tailed t tests, and asterisks indicated the statistical significance as follows: *p < 0.05, **p ≤ 0.01, and ***p ≤ 0.001.
Autoradiography studies were performed according to previous reports. , In brief, the rat brain sections (20 μm) were preincubated with a Tris–HCl buffer (50 mM) at room temperature for 20 min followed by incubation with [^11C]-PF-04822163 (168 Bq/mL). […] The radioactivity values were normalized as a percentage of the radioactivity relative to the control.

Data set [12] has as its target PDE1A (Homo sapiens, UniProt P54750). Briefly: PDE1A inhibition. It is filed as biochemical.
The target of data set [13] is T3, PDE1B. Briefly: PDE1B inhibition. It is filed as biochemical.
A short description of data set [14]: Log D by shake flask method (n-octanol/PBS). It is filed as physicochemical. The note with it: measured with [11C]PF-04822163. How it is done:
as §1
The measurement of log D was performed as previously reported. In brief, [^11C]-PF-04822163, n-octanol (3 mL), and PBS (1×, 3 mL) were added to a centrifuge tube, and vortexing was conducted for 3 min followed by centrifugation (∼14,000 rpm) for 5 min. PBS (around 500 μL) and n-octanol (around 50 μL) were then weighted and measured by a gamma counter.

T3 sequence (Q01064 whole entry, species assumed): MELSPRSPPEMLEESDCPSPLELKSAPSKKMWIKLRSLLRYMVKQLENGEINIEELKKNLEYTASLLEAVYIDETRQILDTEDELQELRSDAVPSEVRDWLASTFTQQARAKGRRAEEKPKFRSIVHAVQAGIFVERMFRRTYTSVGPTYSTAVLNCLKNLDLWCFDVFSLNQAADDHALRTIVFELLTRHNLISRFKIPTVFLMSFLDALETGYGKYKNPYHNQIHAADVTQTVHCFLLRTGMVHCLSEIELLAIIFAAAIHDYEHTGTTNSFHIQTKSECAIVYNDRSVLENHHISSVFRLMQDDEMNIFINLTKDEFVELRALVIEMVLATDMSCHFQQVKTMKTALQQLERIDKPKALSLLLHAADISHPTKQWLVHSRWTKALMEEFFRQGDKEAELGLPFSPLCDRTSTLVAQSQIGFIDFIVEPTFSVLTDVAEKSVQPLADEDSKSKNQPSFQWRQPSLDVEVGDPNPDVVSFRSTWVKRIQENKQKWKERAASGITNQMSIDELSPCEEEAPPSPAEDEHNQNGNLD
PDE1A, sequence (P54750 whole entry, species assumed): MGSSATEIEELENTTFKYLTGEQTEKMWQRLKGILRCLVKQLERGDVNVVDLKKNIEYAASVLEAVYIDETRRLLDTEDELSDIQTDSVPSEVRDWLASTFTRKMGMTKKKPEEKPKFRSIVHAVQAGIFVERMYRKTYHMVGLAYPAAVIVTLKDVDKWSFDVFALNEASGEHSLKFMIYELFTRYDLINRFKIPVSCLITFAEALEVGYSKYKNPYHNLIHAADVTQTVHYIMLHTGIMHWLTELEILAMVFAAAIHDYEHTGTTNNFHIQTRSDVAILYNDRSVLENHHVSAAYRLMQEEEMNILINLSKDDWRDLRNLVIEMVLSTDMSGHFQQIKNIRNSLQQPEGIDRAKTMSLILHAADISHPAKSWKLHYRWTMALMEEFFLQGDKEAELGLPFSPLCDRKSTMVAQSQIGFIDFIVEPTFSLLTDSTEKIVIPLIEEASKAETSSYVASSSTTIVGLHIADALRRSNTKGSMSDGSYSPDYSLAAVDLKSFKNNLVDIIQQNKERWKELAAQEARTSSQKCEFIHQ
PDE1C, sequence (Q14123 whole entry, species assumed): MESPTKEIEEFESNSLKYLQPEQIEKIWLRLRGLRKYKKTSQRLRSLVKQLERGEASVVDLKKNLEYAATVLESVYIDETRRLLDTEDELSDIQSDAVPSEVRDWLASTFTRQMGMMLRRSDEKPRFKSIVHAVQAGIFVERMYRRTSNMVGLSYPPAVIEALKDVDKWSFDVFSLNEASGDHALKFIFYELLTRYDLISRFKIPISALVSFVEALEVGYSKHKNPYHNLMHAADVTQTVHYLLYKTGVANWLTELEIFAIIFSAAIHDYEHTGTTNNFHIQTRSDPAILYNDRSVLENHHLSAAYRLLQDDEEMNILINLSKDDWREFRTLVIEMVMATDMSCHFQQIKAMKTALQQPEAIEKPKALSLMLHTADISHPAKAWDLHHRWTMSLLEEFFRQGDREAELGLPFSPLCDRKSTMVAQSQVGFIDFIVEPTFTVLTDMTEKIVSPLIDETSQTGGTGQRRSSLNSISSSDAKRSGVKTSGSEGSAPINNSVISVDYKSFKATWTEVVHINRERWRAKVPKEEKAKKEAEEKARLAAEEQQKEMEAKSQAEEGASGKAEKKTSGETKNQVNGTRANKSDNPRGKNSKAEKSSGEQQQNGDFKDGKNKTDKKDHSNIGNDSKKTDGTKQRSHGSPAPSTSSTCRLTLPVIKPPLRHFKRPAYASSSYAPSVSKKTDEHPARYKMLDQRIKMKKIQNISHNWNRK
T2 sequence (P41595 whole entry): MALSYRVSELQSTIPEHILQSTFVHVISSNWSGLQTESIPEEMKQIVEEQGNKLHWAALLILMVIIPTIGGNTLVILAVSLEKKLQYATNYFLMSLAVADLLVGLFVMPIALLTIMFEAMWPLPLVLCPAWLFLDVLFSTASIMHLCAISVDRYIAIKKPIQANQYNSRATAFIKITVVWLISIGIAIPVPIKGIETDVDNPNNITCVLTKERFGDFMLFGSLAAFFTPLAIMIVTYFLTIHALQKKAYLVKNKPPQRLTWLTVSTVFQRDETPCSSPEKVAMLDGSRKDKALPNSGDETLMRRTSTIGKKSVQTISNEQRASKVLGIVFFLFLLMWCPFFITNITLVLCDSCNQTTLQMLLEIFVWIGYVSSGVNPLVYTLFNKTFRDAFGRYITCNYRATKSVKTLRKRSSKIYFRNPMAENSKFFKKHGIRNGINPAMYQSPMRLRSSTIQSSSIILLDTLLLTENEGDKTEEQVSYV
PDE10A, sequence (Q9Y233 whole entry, species assumed): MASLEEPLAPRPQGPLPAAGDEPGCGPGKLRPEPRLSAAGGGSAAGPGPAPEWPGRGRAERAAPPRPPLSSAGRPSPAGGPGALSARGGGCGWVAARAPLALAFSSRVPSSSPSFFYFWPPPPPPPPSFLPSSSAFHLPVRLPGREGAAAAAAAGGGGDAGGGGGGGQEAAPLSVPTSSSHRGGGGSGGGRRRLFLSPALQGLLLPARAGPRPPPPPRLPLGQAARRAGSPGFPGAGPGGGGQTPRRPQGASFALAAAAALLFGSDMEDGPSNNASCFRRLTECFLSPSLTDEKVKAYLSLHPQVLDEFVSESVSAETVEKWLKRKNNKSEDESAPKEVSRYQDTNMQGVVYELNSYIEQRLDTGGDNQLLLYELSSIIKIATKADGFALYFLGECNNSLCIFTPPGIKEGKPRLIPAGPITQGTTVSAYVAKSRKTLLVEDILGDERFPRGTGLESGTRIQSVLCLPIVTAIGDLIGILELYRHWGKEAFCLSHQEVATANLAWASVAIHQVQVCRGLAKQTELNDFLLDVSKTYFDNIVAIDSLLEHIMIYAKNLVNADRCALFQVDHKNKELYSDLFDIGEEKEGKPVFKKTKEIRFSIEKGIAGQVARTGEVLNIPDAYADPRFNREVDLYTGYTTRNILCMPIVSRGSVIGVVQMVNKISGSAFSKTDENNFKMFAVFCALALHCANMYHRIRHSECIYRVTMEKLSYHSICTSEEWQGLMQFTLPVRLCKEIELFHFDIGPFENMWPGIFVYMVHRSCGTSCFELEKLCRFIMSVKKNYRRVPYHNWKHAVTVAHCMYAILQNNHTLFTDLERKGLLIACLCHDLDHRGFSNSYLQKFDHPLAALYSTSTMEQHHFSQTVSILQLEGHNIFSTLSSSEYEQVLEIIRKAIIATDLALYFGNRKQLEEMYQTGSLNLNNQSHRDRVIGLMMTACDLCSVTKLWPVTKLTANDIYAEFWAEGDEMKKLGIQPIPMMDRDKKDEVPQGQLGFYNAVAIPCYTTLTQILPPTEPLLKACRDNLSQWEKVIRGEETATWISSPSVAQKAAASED
T1 sequence (P50406 whole entry): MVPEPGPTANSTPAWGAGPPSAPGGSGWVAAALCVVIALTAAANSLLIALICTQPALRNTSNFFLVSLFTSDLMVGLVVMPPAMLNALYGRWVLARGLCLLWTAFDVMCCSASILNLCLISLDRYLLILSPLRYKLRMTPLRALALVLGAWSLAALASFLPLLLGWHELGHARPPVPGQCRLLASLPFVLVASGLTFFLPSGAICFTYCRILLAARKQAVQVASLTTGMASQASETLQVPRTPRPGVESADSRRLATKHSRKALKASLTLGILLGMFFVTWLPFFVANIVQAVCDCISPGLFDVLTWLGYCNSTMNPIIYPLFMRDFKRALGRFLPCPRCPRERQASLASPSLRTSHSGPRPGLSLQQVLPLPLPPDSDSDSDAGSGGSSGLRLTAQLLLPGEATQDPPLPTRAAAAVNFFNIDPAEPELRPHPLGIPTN

In data set [1] (at 1 and 5 min, heart, lung, liver, kidney, adrenal, and brain), `COc1c(O[11CH3])ccc2c([C@H]3CCc4ccc(Cl)cc43)ncnc12` [[^11C]PF-04822163] showed an uptake of no less than 3 % ID/g. Moreover, in data set [1] (at 60 min), the liver uptake is recorded as 5 % ID/g. In [2] (striatum, 3 min post-tracer administration, baseline), this compound had an SUVmax of 2.0. For the same compound, the “remained unchanged in the brain” value in data set [3] (rat brain) stood at 95%. Besides, the “remained unchanged in plasma” value in [3] (rat plasma) turned out to be 26%.

For `CN1C(=O)c2c(nn(Cc3ccc(-c4cccc(F)n4)cc3)c2Nc2ccccc2)N2C1=N[C@@H]1CCC[C@@H]12` [ITI-214], the “selectivity over other PDEs” value in data set [4] (PDE1 over other PDEs, ref Li et al., 2016) is recorded as greater than 1000 fold. The pIC50 in data set [4] (ref Li et al., 2016) was 10.24.

Consider `CCOC(=O)C1=C[C@]2(CC)CCCN3CCc4c(n1c1ccccc41)[C@@H]32` [Vinpocetine], for which the pIC50 in [4] was 4.52.

`COc1ccc2c([C@H]3CCc4ccc(Cl)cc43)ncnc2c1OC` [PF-04822163, (S)-4-(6-Chloro-2,3-dihydro-1H-inden-1-yl)-7,8-dimethoxyquinazoline] had a melting point of 122 to 124 °C. For the same compound, the “reduction in uptake (AUC) in different brain regions” value in [2] (pretreatment with unlabeled blocker 1 mg/kg, 10 min before [11C]PF-04822163, AUC 0–20 min) was 7–12%. Also, in [5], the “off-target binding (>50% inhibition)” value is “no significant off-target binding”. Further, in data set [6], the pIC50 is 6.60. The pKi in [7] is 5.31. The compound further showed a pKi in [8] of 6.58. Moreover, in data set [9], the pIC50 is 8.15 and the “selectivity over other PDEs for PDE1C” value amounted to 36 fold. In addition, the “selectivity over other PDEs” value in data set [10] is reported as greater than 100 fold. Also, the “decrease in radioactivity signal in PDE1B-rich regions” value in data set [11] was 47–71%. Also, in [12], the pIC50 was 8.70 and the “selectivity over other PDEs for PDE1A” value is 126 fold. For the same compound, in data set [13], the pIC50 is 8.62 and the “selectivity over other PDEs for PDE1B” value came to 105 fold. The logD in [14] was determined as 2.53.

What is called pIC50 is −log10 of the IC50, conventionally taken in molar units. Usually pKi stands for −log10 of the Ki, conventionally taken in molar units. A word on the melting point: it is the temperature, or range, at which the solid turns liquid. Usually logD stands for lipophilicity at a set pH, counting ionised and neutral species. Read a low logD as lower lipophilicity.
